Values joined by “and” are separate entries in the source; they are usually repeats but may differ in a detail not shown here. Equal values may be shown once.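 Values below derive from 48-hour exposures of cells grown in 96-well plates, with endpoints linearly interpolated between the two concentrations bracketing the appropriate inhibition level. Abbreviation: GI50, concentration required for 50% inhibition of growth. TGI: concentration producing complete growth inhibition.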
Tests used:
Assay in all cases: NCI tumour cell line growth inhibition, 48 h
ACHN renal = tested on: ACHN renal
CAKI-1 renal = tested on: CAKI-1 renal
M14 melanoma = tested on: M14 melanoma
OVCAR-4 ovarian = tested on: OVCAR-4 ovarian
RPMI-8226 leukemia = tested on: RPMI-8226 leukemia
SK-OV-3 ovarian = tested on: SK-OV-3 ovarian
SNB-75 CNS = tested on: SNB-75 CNS
SR leukemia = tested on: SR leukemia
TK-10 renal = tested on: TK-10 renal
UACC-62 melanoma = tested on: UACC-62 melanoma

Compound	GI50 (ACHN renal) [µM]	TGI (ACHN renal)	GI50 (CAKI-1 renal)	GI50 (M14 melanoma) [µM]	TGI (M14 melanoma)	GI50 (OVCAR-4 ovarian)	TGI (OVCAR-4 ovarian)	GI50 (RPMI-8226 leukemia)	TGI (RPMI-8226 leukemia)	GI50 (SK-OV-3 ovarian)	TGI (SK-OV-3 ovarian)	GI50 (SNB-75 CNS)	TGI (SNB-75 CNS)	GI50 (SR leukemia) [µM]	TGI (SR leukemia)	GI50 (TK-10 renal) [µM]	TGI (TK-10 renal)	GI50 (UACC-62 melanoma)	TGI (UACC-62 melanoma)	TGI (CAKI-1 renal)
O=C1/C=C/[C@@H](O)[C@@H]2C[C@@H](O)C[C@H]2/C=C/CCCCO1	0.43	> 23.6 µM	0.785 µM	0.336	> 100 µM	0.47 µM	> 100 µM	0.248 µM	0.889 µM	1.05 µM	> 100 µM	0.17 µM	> 100 µM	8.61	> 100 µM	0.388	26.2 µM	0.416 µM	> 100 µM	–
C/C(=N\O)c1ccc(Nc2cc(-c3ccccc3)nc3c(O)cccc23)cc1	10.7	28.2 µM	10.2 µM	16.2	31.3 µM	25.4 µM	73.2 µM	4.5 µM	30.8 µM	27.4 µM	56.1 µM	16.3 µM	31.8 µM	1.27	24.1 µM	12	29.8 µM	13.4 µM	27.1 µM	35 µM
COc1ccccc1NC(=O)C(=O)C(C#N)CC(C)(C)C=O (configuration not stated)	–	> 100 µM	–	–	> 100 µM	–	> 100 µM	–	> 100 µM	–	> 100 µM	–	> 100 µM	–	> 100 µM	–	> 100 µM	–	> 100 µM	> 100 µM
C=CCOc1ccc2c(c1)CC[C@@H]1[C@@H]2CC[C@]2(C)C(=O)/C(=N/O)C[C@@H]12	2.58	> 37.2 µM	1.9 µM	5.95	27.8 µM	2.17 µM	8.6 µM	2.74 µM	9.35 µM	6.97 µM	20.3 µM	0.335 µM	8.39 µM	2.3	7.84 µM	1.49	13.3 µM	14.6 µM	32.5 µM	> 100 µM
CC(=O)SC(C[N+](=O)[O-])c1ccccc1 (configuration not stated)	–	8.94 µM	–	–	17.2 µM	–	5.46 µM	–	5.18 µM	–	26.2 µM	–	7.65 µM	–	6.85 µM	–	23.6 µM	–	28.5 µM	29.3 µM
OC(c1cc2c(Cl)cc(Cl)cc2c2cc(C(F)(F)F)ccc12)C1CCCCN1 (configuration not stated)	1.82	3.65 µM	1.68 µM	2.04	4.12 µM	2.11 µM	4.08 µM	2.3 µM	4.95 µM	1.67 µM	3.26 µM	1.79 µM	3.36 µM	1.49	3.95 µM	2	3.63 µM	1.78 µM	3.42 µM	3.46 µM
COc1ccc(-n2cc(-c3ccc(F)cc3)[nH]c2=O)cc1OC	> 100	> 100 µM	> 100 µM	> 100	> 100 µM	> 100 µM	> 100 µM	> 100 µM	> 100 µM	> 100 µM	> 100 µM	> 100 µM	> 100 µM	> 100	> 100 µM	> 100	> 100 µM	> 100 µM	> 100 µM	> 100 µM
O=c1c(Br)ccc(Br)cc1Br	1.26	2.53 µM	1.7 µM	1.48	2.91 µM	2.47 µM	4.63 µM	0.532 µM	2.89 µM	15.7 µM	29.2 µM	1.83 µM	4.24 µM	0.367	1.48 µM	1.55	5.23 µM	1.75 µM	3.27 µM	3.32 µM
O=C(Nc1ccc(-n2cc(-c3ccncc3)c(-c3ccc(Cl)c(O)c3)n2)cc1)c1ccc(Cl)c(C(F)(F)F)c1	1.55	5.28 µM	1.7 µM	1.16	3.29 µM	3.66 µM	> 90.4 µM	0.426 µM	2.68 µM	1.81 µM	8.81 µM	0.362 µM	1.9 µM	1.37	> 26.2 µM	2.69	11.3 µM	2.21 µM	7.6 µM	3.8 µM
c1ccc2c(c1)-c1nc3ccccc3cc1C2N1CCOCC1 (configuration not stated)	–	> 100 µM	–	–	> 100 µM	–	> 100 µM	–	> 100 µM	–	> 100 µM	–	> 100 µM	–	> 100 µM	–	> 100 µM	–	> 100 µM	> 100 µM
Nc1ncnc2c1c(-c1ccc(Oc3ccccc3)cc1)nn2C[C@H]1SSC[C@H]1O	0.499	6.75 µM	0.938 µM	0.0157	0.0332 µM	1.15 µM	> 100 µM	1.95 µM	9.13 µM	0.222 µM	1.31 µM	2.88 µM	> 24 µM	0.0289	0.127 µM	0.289	1 µM	0.0377 µM	0.145 µM	2.85 µM
CCN(CC)[C@@H]1c2cc3c(cc2C(c2cc(OC)c(O)c(OC)c2)C2C(=O)CO[C@@H]21)OCO3 (some centres not stated)	–	> 100 µM	–	–	> 100 µM	–	> 100 µM	–	> 100 µM	–	> 100 µM	–	> 100 µM	–	> 100 µM	–	> 100 µM	–	> 100 µM	> 100 µM
CCCCCCOc1ccc(/C=N/Nc2cc(C)nc3ccc(Br)cc23)cc1	1.74	3.11 µM	1.66 µM	1.67	3.08 µM	1.81 µM	3.46 µM	1.86 µM	4.06 µM	1.66 µM	3.07 µM	1.84 µM	3.46 µM	0.396	1.85 µM	1.93	3.36 µM	1.74 µM	3.24 µM	3.04 µM
NC(CSC(c1ccccc1)(c1ccccc1)c1ccc(Br)cc1)C(=O)O (configuration not stated)	11.6	> 100 µM	0.499 µM	0.0318	0.146 µM	19.9 µM	> 100 µM	0.093 µM	22.6 µM	0.162 µM	> 72.7 µM	0.729 µM	> 50.8 µM	1.33	> 38.7 µM	14	> 100 µM	0.17 µM	17.4 µM	> 100 µM
N[C@@H](Cc1ccc(N(CCCl)CCCl)cc1)C(=O)O	3.99	21.5 µM and 78.2 µM	2.21 µM and 3.86 µM	17.3	> 100 µM and 84.2 µM	32.1 µM and 18.6 µM	> 100 µM and 48.2 µM and 84.3 µM	19.3 µM and 22.7 µM	75.4 µM and > 85 µM and 183 µM	19.3 µM and 13.9 µM	> 100 µM and 35.6 µM and 85.9 µM	16.3 µM and 14.4 µM	95.9 µM and > 51.6 µM and 123 µM	–	39.1 µM and 71.4 µM	75.3	> 100 µM and 175 µM	8.7 µM and 6.39 µM	> 100 µM and 22.2 µM and 46.2 µM	8.9 µM and 25.4 µM and 67.6 µM
Cn1cc(C2=C(c3cn(CCCN/C(N)=N\[N+](=O)[O-])c4ccccc34)C(=O)NC2=O)c2ccccc21	6.26	> 25 µM	8.06 µM	4.8	12.3 µM	3.22 µM	17.4 µM	5.64 µM	14.8 µM	3.43 µM	> 20 µM	0.161 µM	7.92 µM	0.898	3.96 µM	5.87	19.2 µM	3.1 µM	7.59 µM	> 25 µM
O=CN/C=C\c1cc(O)ccc1O	–	28.2 µM	–	–	> 50.3 µM	–	26.8 µM	–	44.6 µM	–	> 100 µM	–	> 100 µM	–	21.3 µM	–	> 64.7 µM	–	17.5 µM	26.4 µM
Cc1nc(N(C)C)nc(-c2cccc(-c3ccn(CCN(C)C)n3)c2)c1C	> 20	> 20 µM	19.5 µM	> 20	> 20 µM	> 20 µM	> 20 µM	> 20 µM	> 20 µM	> 20 µM	> 20 µM	4.04 µM	> 20 µM	> 20	> 20 µM	> 20	> 20 µM	> 20 µM	> 20 µM	> 20 µM
CC(=O)c1ccc(-c2ccc(C(C)=O)s2)s1	–	> 100 µM	–	–	> 100 µM	–	> 100 µM	–	> 100 µM	–	> 100 µM	–	> 100 µM	–	> 100 µM	–	> 100 µM	–	> 100 µM	> 100 µM
O=c1c(-c2nc3ccccc3[nH]2)cc2ccccc2n1Cc1cn(Cc2ccc(F)cc2)nn1	0.492	> 40.5 µM	0.246 µM	0.0568	0.39 µM	1.35 µM	> 100 µM	0.0427 µM	> 100 µM	0.328 µM	4.63 µM	< 0.0149 µM	0.113 µM	0.0732	> 100 µM	0.793	15.8 µM	0.437 µM	50.7 µM	> 100 µM
COc1ccc(S(=O)(=O)Nc2c(/C=C\c3cc(OC)c(OC)c(OC)c3)ccc(OC)c2O)cc1OC	0.526	> 100 µM	1.01 µM	0.205	> 100 µM	0.664 µM	> 100 µM	0.413 µM	> 61 µM	1.29 µM	> 100 µM	0.251 µM	> 100 µM	0.0661	> 75.9 µM	–	> 100 µM	0.053 µM	> 100 µM	> 100 µM
